In patent publication US12016880B2, “Halogen treatment of heart attack and ischemic injury” (Fred Hutchinson Cancer Center, priority 2014, dated 2024):

Legend:
[1] = tested on: mouse model of heart attack; experiment: Mouse LAD ligation after two days of drinking water containing NaI, infarct size; type: in vivo
Method: In order to examine the effect of pre-treatment with drinking water containing NaI on myocardial infarct size in a mouse model of heart attack, three groups of mice were provided with drinking water containing various concentrations of iodide to achieve dosages of 0.07 mg/kg/day (normal drinking water) for the first group; 0.77 mg/kg/day for the second group; or 7.07 mg/kg/day for the third group, for two days immediately prior to open chest ligation of the left descending coronary artery (LAD ligation) to initiate ischemia. A fourth group of mice was provided with normal drinking water for the two days prior to the initiation of ischemia, but at 55 minutes post initiation of ischemia, either vehicle (saline) or test agent (NaI) was injected into the femoral vein of each of these mice. […] After two hours of reperfusion, infarct size was measured by morphometry (FIG. 1). To be certain that all animals in the study were treated in a similar way, the area at risk (AAR) as a proportion of the left ventricle was determined (FIG. 8). Area at risk (AAR) and infarct size (Inf) were measured using the specific dyes TTC and Evans blue. Processed images were generated in an unbiased way by setting constant thresholds and allowing Photoshop® to generate the images that were quantitated to generate the data presented in FIG. 8.

[2] = tested on: mouse model of heart attack; experiment: Mouse LAD ligation, NaI i.v. pretreatment before ischemia, infarct size by morphometry; type: in vivo
Method: To determine whether pretreatment with NaI prior to heart attack improves heart attack outcome, open chest ligation experiments were performed in mice where either vehicle (saline) or test agent (NaI) was injected into the femoral vein of each mouse either 5 minutes or 48 hours before initiation of ischemia. Open chest ligation of the left descending coronary artery (LAD ligation) was then performed, and the heart muscle was reperfused by releasing the ligature at 60 minutes post initiation of ischemia. After 2 hours of reperfusion, infarct size was measured by morphometry as described above (FIG. 3). Three groups of mice were utilized in this study, including a saline vehicle group (n=1) and two test groups that received 1 mg/kg NaI 5 minutes before LAD ligation (n=4) or 1 mg/kg NaI 48 hours before LAD ligation (n=1).

[3] = tested on: peripheral blood mononuclear cells (PBMC); experiment: Mixed lymphocyte culture, tritiated thymidine incorporation; type: cell-based; settings: 5 days culture, 18 hours pulse
Method: In particular embodiments, immunosuppression induced by halogen or chalcogenide compounds is assessed by measuring T cell proliferation, e.g., in response to activated antigen presenting cells. Essentially a mixed lymphocyte reaction, this assay exploits that fact that T cell exposure to presented antigens result in T cell activation and proliferation, as well as supportive increases in DNA synthesis. […] Irradiation results in the presentation of numerous antigens to antigen presenting cells, thus the irradiated cells serve as potent activators of T cells. By mixing the irradiated cells with the non-irradiated cells, strong T cell proliferation will occur. This proliferation can be measured using any proliferation assay, as would be commonly known to the skilled artisan. In one embodiment, proliferation is assessed by measuring DNA synthesis. Mixed PBMC were cultured in the presence or absence of halogen or chalcogenide compounds for 5 days, and then pulsed with tritiated thymidine for 18 hours to label newly synthesized DNA. The degree of labeling is directly correlated with the degree of T cell activation, thus low levels of labeling correlate with immunosuppression.
PBMC were either irradiated with 3500 rads (Ax and Bx) or not (A and B). […] Cells were lysed, the lysate filtered to trap the DNA on the filter and the filters counted in a scintillation counter. […]

[4] = tested on: mouse model of chronic heart failure; experiment: Mouse chronic heart failure after LAD ligation, iodide in drinking water, echocardiography; type: in vivo; settings: drinking water 0.77 mg/kg/day iodide from LAD ligation for 12 weeks vs normal drinking water
Method: In order to examine the effect of drinking water containing NaI on chronic heart failure following heart attack in a mouse model, two groups of mice were provided with drinking water lacking iodide or drinking water containing 0.77 mg/kg/day iodide starting immediately following open chest ligation of the left descending coronary artery (LAD ligation) to initiate ischemia, and continuing until the end of the study, which lasted 12 weeks. Prior to the LAD ligation and at 1 week, 2 weeks, 4 weeks, 8 weeks, and 12 weeks following the LAD ligation, mice were examined by echocardiography to determine their left ventricle ejection fraction and their left ventricle fractional shortening.

[5] = tested on: mouse model of heart attack; experiment: Transthoracic echocardiography of left ventricle after myocardial ischemia and reperfusion; type: in vivo; settings: FIG. 4; single intravenous administration two days prior to ligation-induced ischemia
Method: For each of the sets of bars for Ejection Fraction and Fractional Shortening, the bars from left to right correspond to the bars from top to bottom shown in the legend.
In vivo transthoracic echocardiography of the left ventricle (LV) using a 30-MHz RMV scanhead interfaced with a Vevo 770 (Visualsonics) was performed, and two-dimensional echocardiography images were obtained. LV end-diastolic diameter (EDD) and LV end-systolic diameter (ESD) were measured at a day before for a baseline and one and 4 weeks after myocardial ischemia and reperfusion. LV percent fractional shortening (FS) and LV ejection fraction (EF) were calculated.

[6] = tested on: rat model of acute myocardial infarction (AMI); experiment: Rat acute myocardial infarction (30 min LAD occlusion), plasma cTpnI and infarct size; type: in vivo; settings: 1 mg/kg i.v. bolus, vs placebo
Method: Male CD®, IGS Rats (300-450 g) were subjected to 30 minutes of LAD occlusion followed by 24-30 hrs of reperfusion. 200-400 uL of blood was drawn at 4 and 24¬30 hrs post-reperfusion for plasma cTpnI measurements by EIA. After the 24-30 hr blood draw, the LAD was re-occluded, and the heart was excised following i.v. administration of Evans Blue. The hearts were frozen overnight, sectioned, and stained with triphenyl tetrazolium chloride for subsequent blinded infarct analysis.
Rats were anesthetized with a ketamine/xylazine mixture (100 mg/kg and 10 mg/kg, respectively) and maintained under 2-3% isoflurane in 100% medical oxygen after intubation with a 16 gauge angiocatheter sheath (Terumo® Surflo i.v. catheter, 16G×2″, VWR Cat. #TESR-OX1651CA). Animals were ventilated using a Harvard Apparatus Model 683 small animal ventilator equipped with a 5 cc cylinder at a tidal volume of 1.5-2.0 mL/stroke and a respiratory rate of 105 strokes/min. With the rat lying on its right side, animal fur was removed from the surgical area with clippers and then cleaned with alcohol pads. The heart beat was visualized through the chest wall and a dorsoventral incision in the left chest wall was made directly over the beating heart. The underlying fascia was dissected away to reveal the ribs and intercostal muscles. […]

[7] = tested on: mouse model of heart attack; experiment: Mouse LAD ligation ischemia/reperfusion, NaI i.v. before reperfusion, infarct size by morphometry; type: in vivo
Method: In order to examine the effect of NaI on myocardial infarct size in a mouse model of heart attack, open chest ligation of the left descending coronary artery (LAD ligation) was performed in mice. At 55 minutes post initiation of ischemia, either vehicle (saline) or test agent (NaI) was injected into the femoral vein of each mouse. The heart muscle was reperfused by releasing the ligature at 60 minutes post initiation of ischemia. After 2 hours of reperfusion, infarct size was measured by morphometry (FIG. 1). Five groups of mice were utilized in this study, including a saline vehicle group (n=3) and […] test groups that received 0.25 mg/kg (n=4), 0.5 mg/kg (n=5), 1 mg/kg (n=5), or 2 mg/kg (n=6) of NaI. To be certain that all animals in the study were treated in a similar way, the area at risk (AAR) as a proportion of the left ventricle was determined (FIG. 1). Area at risk (AAR) and infarct size (Inf) were measured using the specific dyes TTC and Evans blue. Processed images were generated in an unbiased way by setting constant thresholds and allowing Photoshop® to generate the images that were quantitated to generate the data presented in FIG. 1.
An additional test was performed under the same conditions but using an expanded range of concentration of NaI.

[8] = Oxidation of selenide in water or glutathione solution (visual darkening); type: physicochemical; settings: 50 mM selenide in 150 mM GSH vs in water, 8 minutes immediately following preparation
Method: The photographs show samples of 50 mM selenide in either water (FIG. 5A) or 150 mM GSH (FIG. 5B) over the eight minutes immediately following preparation.

hypoxic injuries = settings: mice and rats; PCT Publication No. WO2005/041655; cited from earlier work

## [I-].[Na+] [NaI, sodium iodide]
[1]; drinking water 0.77 or 7.07 mg/kg/day for two days prior to LAD ligation vs normal water (0.07 mg/kg/day)
  infarct size (morphometry): statistically significant decreases in infarct size
[1]; drinking water pre-treatment for two days
  decrease in infarct size compared with iodide i.v. at the time of reperfusion: somewhat less or comparable
[2]; 1 mg/kg NaI i.v. 5 minutes or 48 hours before LAD ligation, vs saline group (FIG. 3)
  infarct size (morphometry): statistically significant decreases in infarct size
[2]; pre-treatment 1 mg/kg NaI 5 minutes or 48 hours before LAD ligation
  reduction in infarct size in comparison to vehicle alone: approximately 70%
[3]; highest concentration
  tritiated thymidine labeling (DNA synthesis): reduced the amount of labeling
[4]
  left ventricle ejection fraction: statistically significant increases
  left ventricle fractional shortening: statistically significant increases
[5]
  protective effect by echocardiography (LV ejection fraction, fractional shortening): protective effect of NAI was confirmed by echocardiography
[6]; 4 and 24 hr
  plasma troponin levels (cTpnI): consistently lower
[6]; 24 hrs
  infarct size: smaller
[7]; NaI 0.25, 0.5, 1 or 2 mg/kg into femoral vein at 55 minutes of ischemia, 2 hours of reperfusion, vs saline group (FIG. 1)
  infarct size (morphometry): statistically significant decreases in infarct size
[7]; additional test, same conditions, expanded range of concentration of NaI, vs saline group (FIG. 2)
  infarct size (morphometry): statistically significant decreases in infarct size
[7]; each dosage tested (0.25-2 mg/kg NaI i.v. at 55 minutes of ischemia)
  reduction in infarct size in comparison to vehicle alone: approximately 70%

## selenide
[3]; all concentrations
  tritiated thymidine labeling (DNA synthesis): reduced the labeling to control levels
[8]
  oxidation of selenide (dark oxidized forms): reduced levels of oxidation at each time point

## sulfide
Hypoxic injuries
  metabolism and protection from hypoxic injuries: can reduce metabolism and protect mice and rats from hypoxic injuries
